Test results: PubChem BioAssay (NCI)
Values joined by “and” are separate entries in the source; they are usually repeats but may differ in a detail not shown here. Identical values can stand only once.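 Cells were grown in 96-well plates and exposed to each compound for 48 hours at five concentrations; endpoints were interpolated linearly between bracketing concentrations, or set to the highest concentration if not reached. GI50 = concentration required for 50% inhibition of growth. TGI marks complete inhibition of growth.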

Assays:
Assay in all cases: NCI tumour cell line growth inhibition, 48 h
[1] = tested on: 786-0 renal
[2] = tested on: A498 renal
[3] = tested on: A549 NSCLC
[4] = tested on: ACHN renal
[5] = tested on: CAKI-1 renal
[6] = tested on: CCRF-CEM leukemia
[7] = tested on: COLO 205 colon
[8] = tested on: DLD-1 colon
[9] = tested on: DMS 114 small cell lung
[10] = tested on: DMS 273 small cell lung
[11] = tested on: EKVX NSCLC
[12] = tested on: HCC-2998 colon
[13] = tested on: HCT-116 colon
[14] = tested on: HCT-15 colon
[15] = tested on: HL-60(TB) leukemia
[16] = tested on: HOP-18 NSCLC
[17] = tested on: HOP-62 NSCLC
[18] = tested on: HOP-92 NSCLC
[19] = tested on: HT29 colon
[20] = tested on: IGROV1 ovarian
[21] = tested on: K-562 leukemia
[22] = tested on: KM12 colon
[23] = tested on: KM20L2 colon
[24] = tested on: LOX IMVI melanoma
[25] = tested on: LXFL 529 NSCLC
[26] = tested on: M19-MEL melanoma
[27] = tested on: MALME-3M melanoma
[28] = tested on: MCF7 breast
[29] = tested on: MOLT-4 leukemia
[30] = tested on: NCI-H226 lung
[31] = tested on: NCI-H23 lung
[32] = tested on: NCI-H460 lung
[33] = tested on: NCI-H522 lung
[34] = tested on: NCI/ADR-RES ovarian
[35] = tested on: OVCAR-3 ovarian
[36] = tested on: OVCAR-4 ovarian
[37] = tested on: OVCAR-5 ovarian
[38] = tested on: OVCAR-8 ovarian
[39] = tested on: P388 leukemia
[40] = tested on: P388/ADR leukemia
[41] = tested on: RPMI-8226 leukemia
[42] = tested on: RXF 393 renal
[43] = tested on: SF-268 CNS
[44] = tested on: SF-295 CNS
[45] = tested on: SF-539 CNS
[46] = tested on: SK-MEL-2 melanoma
[47] = tested on: SK-MEL-28 melanoma
[48] = tested on: SK-MEL-5 melanoma
[49] = tested on: SK-OV-3 ovarian
[50] = tested on: SN12C renal
[51] = tested on: SN12K1 renal
[52] = tested on: SNB-19 CNS
[53] = tested on: SNB-75 CNS
[54] = tested on: SNB-78 CNS
[55] = tested on: SR leukemia
[56] = tested on: SW-620 colon
[57] = tested on: TK-10 renal
[58] = tested on: U251 CNS
[59] = tested on: UACC-257 melanoma
[60] = tested on: UACC-62 melanoma
[61] = tested on: UO-31 renal
[62] = tested on: XF 498 CNS

## COc1cccc2c1C(=O)c1c(O)c3c(c(O)c1C2=O)C[C@@](O)(C(C)O)C[C@@H]3OC1CC(N)C(O)C(C)O1 (some centres not stated)
[1]
  TGI: 4.11 µM
[2]
  GI50: 0.776 µM
  TGI: 8.09 µM and 4.62 µM
[3]
  GI50: 1.11 µM
  TGI: 6.02 µM and 29 µM
[4]
  TGI: 8.18 µM
[5]
  TGI: 3.16 µM and 3.53 µM
[6]
  GI50: 0.254 µM
  TGI: 1.33 µM
[7]
  GI50: 0.894 µM
  TGI: 4.95 µM and 10.5 µM
[8]
  GI50: 6.11 µM
  TGI: > 100 µM
[9]
  GI50: 0.255 µM
  TGI: 1.48 µM and 1.14 µM
[10]
  TGI: 7.24 µM and 6.65 µM
[11]
  GI50: 1.73 µM
  TGI: 4.91 µM and 9.53 µM
[12]
  GI50: 2.26 µM
  TGI: 5.26 µM and 7.66 µM
[13]
  GI50: 1.38 µM
  TGI: 4.17 µM and 17.8 µM
[14]
  GI50: 12.1 µM
  TGI: > 100 µM
[15]
  TGI: 1.13 µM and 1.29 µM
[16]
  GI50: 4.96 µM and 1.13 µM
  TGI: 9.5 µM and 7.49 µM
[17]
  TGI: 4.3 µM and 4.42 µM
[18]
  GI50: 0.231 µM
  TGI: 3.37 µM and 2.11 µM
[19]
  GI50: 2.78 µM
  TGI: 36.6 µM
[20]
  TGI: 9.22 µM and 18.4 µM
[21]
  GI50: 2.21 µM
  TGI: 8.19 µM and 26.5 µM
[22]
  GI50: 2.75 µM
  TGI: 9.34 µM and 14.3 µM
[23]
  GI50: 4.52 µM
  TGI: 42.9 µM
[24]
  GI50: 1.29 µM
  TGI: 4.13 µM and 3.11 µM
[25]
  TGI: 7.62 µM
[26]
  TGI: 3.32 µM and 4.06 µM
[27]
  GI50: 0.392 µM
  TGI: 1.72 µM and 1.93 µM
[28]
  TGI: 42.5 µM
[29]
  GI50: 0.0811 µM
[30]
  GI50: 0.808 µM
  TGI: 2.39 µM and 3.11 µM
[31]
  GI50: 1.27 µM
  TGI: 2.44 µM and 4.93 µM
[32]
  TGI: 2.29 µM and 6.95 µM
[33]
  GI50: 0.228 µM
  TGI: 2.34 µM and 1.82 µM
[34]
  TGI: > 100 µM
[35]
  TGI: 7.29 µM and 8.79 µM
[36]
  GI50: 13.4 µM
  TGI: 35.2 µM
[37]
  GI50: 3.69 µM
  TGI: 9.41 µM and 19.7 µM
[38]
  GI50: 2.39 µM
  TGI: 5.43 µM and > 52.5 µM
[39]
  TGI: 1.69 µM
[40]
  TGI: > 100 µM
[41]
  GI50: 0.289 µM and 0.502 µM
  TGI: 2.53 µM and 13 µM
[42]
  TGI: 5.13 µM and 6.06 µM
[43]
  TGI: 5.52 µM and 6.43 µM
[44]
  TGI: 6.29 µM and 7.17 µM
[45]
  GI50: 0.665 µM
  TGI: 4.77 µM and 3.63 µM
[46]
  GI50: 1.59 µM
  TGI: 3.5 µM and 3.45 µM
[47]
  GI50: 1.93 µM
  TGI: 4.05 µM and 7.36 µM
[48]
  TGI: 2.49 µM and 2.53 µM
[49]
  TGI: 8.2 µM and 18.6 µM
[50]
  GI50: 1.49 µM
  TGI: 6.58 µM and 7.62 µM
[51]
  TGI: 2.4 µM
[52]
  GI50: 0.392 µM
  TGI: 7.81 µM and 5.57 µM
[53]
  GI50: 1.71 µM and 1.05 µM
  TGI: 6.25 µM and 4.31 µM
[54]
  TGI: 7.32 µM and 8.53 µM
[55]
  TGI: 0.659 µM
[56]
  GI50: 0.881 µM
  TGI: 8.28 µM and 21.4 µM
[57]
  TGI: 8.11 µM
[58]
  GI50: 0.705 µM
  TGI: 7.87 µM and 3.44 µM
[59]
  GI50: 2.41 µM
  TGI: 4.2 µM and 9.17 µM
[60]
  TGI: 3.01 µM and 3.29 µM
[61]
  TGI: 97.8 µM
[62]
  GI50: 0.221 µM
  TGI: 2.87 µM and 1.86 µM
